# Conditions: pH 7
substance,measurement,value
chitosan,solubility according to pH,rapid decrease in solubility

# Reference: patent publication US20040242537A1, “Acetylation method of chitosan” (priority 2001, published 2004)
